Data reported in ChEMBL document CHEMBL1201862, “PubChem BioAssay data set” (2004).
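Compound exposure: 48 hours, 5 concentrations, 96-well plates. Here, GI50 denotes the concentration required for 50% inhibition of growth.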 The source made the active and inactive calls. Cut-off read from the data, not from the text of the source: active = GI50 up to about 1.1 µM and inactive = higher.

What was measured:
Assay in all cases: growth of human tumour cells (NCI), 48 h
[1] = test system: SK-MEL-5
[2] = test system: RPMI-8226
[3] = test system: SF-268
[4] = test system: MDA-MB-231
[5] = test system: U-251
[6] = test system: CAKI-1
[7] = test system: SK-MEL-2
[8] = test system: HCT-15
[9] = test system: NCI-H23
[10] = test system: PC-3
[11] = test system: MCF7
[12] = test system: UACC-62
[13] = test system: A549
[14] = test system: SK-MEL-28
[15] = test system: LOX IMVI
[16] = test system: COLO 205
[17] = test system: OVCAR-3
[18] = test system: T47D
[19] = test system: HCC 2998

| SMILES | GI50 [1] | GI50 [2] | GI50 [3] | GI50 [4] | GI50 [5] | GI50 [6] | GI50 [7] | GI50 [8] [µM] | GI50 [9] | GI50 [10] | GI50 [11] | GI50 [12] | GI50 [13] | GI50 [14] | GI50 [15] | GI50 [16] | GI50 [17] | GI50 [18] | GI50 [19] |
| --- | --- | --- | --- | --- | --- | --- | --- | --- | --- | --- | --- | --- | --- | --- | --- | --- | --- | --- | --- |
| NC(Cc1cc(I)c(Oc2ccc(O)c(I)c2)c(I)c1)C(=O)O (configuration not stated) [RATHYRONINE] | 37.6 µM (inactive) | 29.9 µM (inactive) | 42.6 µM (inactive) | 29.3 µM (inactive) | 43.4 µM (inactive) | > 100 µM (inactive) | 19.9 µM (inactive) | > 100 | > 100 µM (inactive) | > 100 µM (inactive) | 41.6 µM (inactive) | 64.4 µM (inactive) | > 100 µM (inactive) | 38.9 µM (inactive) | 34.8 µM (inactive) | > 100 µM (inactive) | > 100 µM (inactive) | 81.7 µM (inactive) | – |
| Cc1ccc(/N=C/C=C(\Nc2ccc(C)cc2)c2ccc3ccccc3c2)cc1 | 0.482 µM (active) | 0.536 µM (active) | 2.19 µM (inactive) | 0.388 µM (active) | 0.738 µM (active) | 0.45 µM (active) | 0.938 µM (active) | 0.45 | 0.585 µM (active) | 1.02 µM (active) | 0.515 µM (active) | 0.331 µM (active) | 2.66 µM (inactive) | 0.488 µM (active) | 0.456 µM (active) | 0.571 µM (active) | 0.364 µM (active) | 1.41 µM (inactive) | – |
| COC(=O)c1cncc2c1CC1C3(C(=O)OC)C=NC(C4C(CO)=CCC43)C21C (configuration not stated) | > 100 µM (inactive) | – | > 100 µM (inactive) | > 100 µM (inactive) | > 100 µM (inactive) | > 100 µM (inactive) | > 100 µM (inactive) | > 100 | > 100 µM (inactive) | > 100 µM (inactive) | > 100 µM (inactive) | – | > 100 µM (inactive) | > 100 µM (inactive) | > 100 µM (inactive) | > 100 µM (inactive) | – | > 100 µM (inactive) | > 100 µM (inactive) |
| COC(=O)c1cn(CCCCO)nn1 | > 100 µM (inactive) | – | > 100 µM (inactive) | > 100 µM (inactive) | > 100 µM (inactive) | > 100 µM (inactive) | > 100 µM (inactive) | > 100 | > 100 µM (inactive) | > 100 µM (inactive) | > 100 µM (inactive) | > 100 µM (inactive) | > 100 µM (inactive) | > 100 µM (inactive) | > 100 µM (inactive) | > 100 µM (inactive) | – | 3.65 µM (inactive) | > 100 µM (inactive) |
| Nc1ccc(Oc2ccc(C34CC5C6CC7(c8ccc(Oc9ccc(N)cc9)cc8)CC5C(C3)C(C7)C6C4)cc2)cc1 | > 100 µM (inactive) | > 100 µM (inactive) | > 100 µM (inactive) | > 100 µM (inactive) | > 100 µM (inactive) | > 100 µM (inactive) | > 100 µM (inactive) | > 100 | > 100 µM (inactive) | > 100 µM (inactive) | > 100 µM (inactive) | > 100 µM (inactive) | > 100 µM (inactive) | > 100 µM (inactive) | > 100 µM (inactive) | > 100 µM (inactive) | > 100 µM (inactive) | > 100 µM (inactive) | – |
| NCCCNc1ccc2c(c1)[n+]([O-])c1ccccc1[n+]2[O-] | 15.2 µM (inactive) | 17.6 µM (inactive) | 27.1 µM (inactive) | 19.9 µM (inactive) | 19.5 µM (inactive) | – | – | 22.9 | 35.5 µM (inactive) | 27.4 µM (inactive) | 13.9 µM (inactive) | 17.7 µM (inactive) | 31.5 µM (inactive) | 59.7 µM (inactive) | 7.14 µM (inactive) | 18.3 µM (inactive) | 19.8 µM (inactive) | 22.7 µM (inactive) | 23.2 µM (inactive) |
| O=C1c2cccnc2S(=O)(=O)N1c1ccc(Oc2ccccc2)cc1 | – | > 100 µM (inactive) | > 100 µM (inactive) | > 100 µM (inactive) | > 100 µM (inactive) | 51.8 µM (inactive) | > 100 µM (inactive) | > 100 | > 100 µM (inactive) | 72.3 µM (inactive) | > 100 µM (inactive) | > 100 µM (inactive) | 91.8 µM (inactive) | > 100 µM (inactive) | – | > 100 µM (inactive) | > 100 µM (inactive) | > 100 µM (inactive) | > 100 µM (inactive) |
| C=C1C(=O)C=C[C@]2(C)CC[C@H]3C(=C)C(=O)O[C@@H]3[C@@H]12 | 2.34 µM (inactive) | 0.346 µM (active) | 3.15 µM (inactive) | 4.08 µM (inactive) | 2.13 µM (inactive) | 2.22 µM (inactive) | 2.55 µM (inactive) | 0.785 | 2.63 µM (inactive) | 2.84 µM (inactive) | 0.738 µM (active) | 1.96 µM (inactive) | 11.6 µM (inactive) | 1.91 µM (inactive) | 1.8 µM (inactive) | 0.964 µM (active) | 1.85 µM (inactive) | 2.22 µM (inactive) | – |
| CC[n+]1[b-](C(C)(C)C)n(/N=C(\C)C(C)(C)C)[b-](C(C)(C)C)[n+]1CC | > 100 µM (inactive) | – | > 100 µM (inactive) | > 100 µM (inactive) | > 100 µM (inactive) | > 100 µM (inactive) | > 100 µM (inactive) | > 100 | > 100 µM (inactive) | > 100 µM (inactive) | > 100 µM (inactive) | > 100 µM (inactive) | > 100 µM (inactive) | > 100 µM (inactive) | > 100 µM (inactive) | – | > 100 µM (inactive) | > 100 µM (inactive) | > 100 µM (inactive) |
| COC(=O)NC1(NC(=O)OC)NC(=O)c2cc(OC)c(OC)c(OC)c2N1 | 11 µM (inactive) | – | 28.1 µM (inactive) | 36.2 µM (inactive) | < 0.01 µM (active) | 63.8 µM (inactive) | 0.0132 µM (active) | 8.49 | 32.7 µM (inactive) | 12.4 µM (inactive) | 30.3 µM (inactive) | 30.1 µM (inactive) | < 0.01 µM (active) | 84.3 µM (inactive) | – | 18.7 µM (inactive) | 54.1 µM (inactive) | 43.5 µM (inactive) | 9.14 µM (inactive) |
| S=C(N/N=C(/c1ccccc1)c1ccccn1)N1CCCCC1 | < 0.0249 µM (active) | < 0.0202 µM (active) | – | 0.0273 µM (active) | < 0.0244 µM (active) | 0.143 µM (active) | 0.741 µM (active) | < 0.0234 | 0.0459 µM (active) | < 0.0151 µM (active) | 0.0425 µM (active) | 0.16 µM (active) | < 0.0302 µM (active) | 0.604 µM (active) | – | < 0.0214 µM (active) | 0.01 µM (active) | 0.0927 µM (active) | 0.219 µM (active) |
| CC[C@@H]1CC[C@@H]2[C@H](CC[C@]3(C)[C@@H](O[N+](=O)[O-])CC[C@@H]23)[C@H]1C(C)=O | 19.7 µM (inactive) | 9.02 µM (inactive) | 24.5 µM (inactive) | 11.8 µM (inactive) | 32.4 µM (inactive) | 50.7 µM (inactive) | – | 22.2 | 28.1 µM (inactive) | 28.9 µM (inactive) | 23.8 µM (inactive) | – | 28.4 µM (inactive) | 30.3 µM (inactive) | 20 µM (inactive) | 7.85 µM (inactive) | 64.1 µM (inactive) | 12.9 µM (inactive) | 28 µM (inactive) |
